The subject of experiment [1] is vaccine specific antibodies. The experiment in a line: Vaccine-specific antibodies in infant stool. Format: in vivo, human. The source says:
Infants from Example 1 received vaccines per the standard schedule. Standard schedule is expected to look like this, as per the CDC (other nations have slightly different schedules; however, the repeated doses over the first year of life is common).
Stool samples were collected at 10 and 12 months for vaccine quantification to coincide with an appropriate post-vaccine time point, and to allow the expansion of vaccine-specific antibodies concentrations to plateau after primary, secondary or tertiary doses [Wright et al. (2014) Journal of Infectious Diseases:209 pg 1628-1634; Brown et al. (2012) J Immunol Methods: 386(1-2): 117-12].
Evaluation of stool for antigen specific responses in infants colonized with B. infantis EVC001. Biophysical antibody profiling assays are performed to assess the Fv and Fc characteristics of vaccine-elicited antibodies raised in infants with and without B. infantis colonization. Presence and phenotype of antibodies in test samples are assessed by staining of bead-bound antibodies with PE-conjugated detection reagents (Anti-IgG, Anti-IgA, and potentially Anti-IgE) and detection via flow cytometry. For the assay, 100 μL each of prepared stool samples from 34 subjects (2 timepoints, up to 62 samples total) that received either received EVC001 or are part of the control group.

The nature of experiment [2]: Bacterial growth and oligosaccharide use in HMO, LNnT or FOS media (growth curves, HPLC). To be noted: compared to other Bifidobacterium and Lactobacillus strains. The procedure:
Little is known about the anti-inflammatory effects B. infantis-derived metabolites have on intestinal epithelial cells and how they might protect and maintain mucosal integrity in the infant gut. To investigate whether metabolites from B. infantis grown on HMO and synthetic HMOs can provide protective effects against pathogen-induced inflammation and maintain mucosal integrity compared to other commensal strains that have been previously characterized. B. infantis, B. breve, B. bifidum, and B. longum were grown in media containing pooled HMOs, synthetic Lacto-N-neotetraose (LNnT), or fructo-oligosaccharide (FOS, a readily available oligosaccharide commonly used in baby formulas). Four Lactobacillus plantarum strains were also grown in HMO, LNnT, and FOS media. Spent supernatant was collected and filtered after 48 hours of growth (when the bacteria reached the stationary phase) and evaluated for the remaining oligosaccharide concentration. […] After overnight incubation, cell supernatant was analyzed by ELISA for reductions in pro-inflammatory cytokines, including IL-8 and TNF-alpha. […]

The subject of the next experiment is peanut allergy. The experiment in a line: Prevention of human peanut allergy in infants. The format is in vivo. To be noted: high-level colonization vs control group with low-level colonization. As for the experimental part:
Infants 2-4 months of age at risk of allergy are recruited and their stool is screened for their Bifidobacterium infantis status (Bifidobacterium infantis abundance). The infants are divided into 2 groups: high Bifidobacterium (desirable infant gut microbiome) and low Bifidobacterium (dysbiotic infant gut microbiome). Low Bifidobacterium stool samples are determined to be low Bifidobacterium or dysbiotic, if their levels of Bifidobacterium are less than a threshold of 10^8 CFU/ug DNA and/or Bifidobacteriaceae family is less than 35% of the total infant gut microbiome as measured by a next generation sequencing, such as 16S RNA sequence. Conversely, a high Bifidobacterium sample or desirable infant gut microbiome has a threshold of 10^8 CFU/ug DNA or greater and/or Bifidobacteriaceae family is greater than 35% of the total infant gut microbiome. Once the infants are screened, the dysbiotic group is randomized into a placebo arm or a supplemented arm receiving activated B. infantis, LNnT and retinol. Infants are fed the supplement or placebo for 16 weeks. At 12 weeks, peanut extract is introduced to the diet for 3 days to infants who are at least 4 months old. Blood samples are taken at 12 weeks, 16 weeks, 20 weeks, 24 weeks, 36 weeks, 40 weeks to analyze TReg cells and IgE. At 9 months, the infants are brought in for a peanut challenge. The incident of allergy between groups is analyzed.

The nature of experiment [3]: Nutritional intervention study on autoimmune/allergic disease (T1D) in breastfed infants. Format: in vivo, human. The following applies: colonized infants. An excerpt:
Administration of activated B. infantis to breastfed neonates and infants leads consistently to high levels of B. infantis in the stool.
This is a randomized, double-blinded, placebo-controlled, parallel group study design (See FIG. 15). After the parent/guardian(s) sign the informed consent, infants will be screened for all the eligibility criteria, and if found eligible will be enrolled in the study. Eligible infants must first undergo an HLA genotyping from a cord blood sample collected at birth. Based on their HLA genotype they will be either placed in group 1 (low risk by HLA genotyping) and group 2 (high risk by HLA genotype). Each group will be randomly assigned to the placebo or treatment groups. […] Parent/guardian(s) of the infants will be instructed to maintain breastfeeding (at least 1 feed/day) for at least 6 months, and up to 12 months if possible during the treatment period. Following the 12-month treatment period, individuals will be followed at regular intervals with study visits and assessments. Individuals will be followed until a sufficient number of events (seroconversion to multiple (2) islet autoantibodies) are accumulated to achieve the planned power for the final analysis. […]

Experiment [4] is described as follows: Prevention and/or treatment of severe acute malnutrition (SAM) in infants. The format is in vivo, human. To be noted: 28 days.
Experiment [5] is described as follows: Immune development in C-section infants. The format is in vivo, human. The following applies: baseline to three months. The source says:
Approximately 25 mother-infant dyads are recruited to provide a cord blood sample and two infant blood samples, one on day 0-4 and another at 3 months old (between 84 and 104). Markers of immune function will be analysed and compared to the development of the gut microbiome.
The study design is described in FIG. 16. The change in levels of immune cells and markers from baseline (Day 0-Day 4) to three months (Day 84-Day 104) will be measured. The correlation between gut microbiota composition and abundance and levels of immune cells and markers may also be measured. The differences between B. infantis and placebo supplementation on levels of immune cells and markers in breast-fed infants.
The differences between B. infantis and placebo supplementation on vaccine response (antibody titers). Blood samples are collected at baseline and month-three postpartum for evaluation of peripheral blood mononuclear cell characterization (including regulatory T cells) and vaccine response.

“Bifidobacterium longum subsp. infantis EVC001 [B. infantis EVC001]”: the Vaccine response result in experiment [1] (infants persistently colonized for at least the first 100 days of life vs infants without colonization) is on record as “stronger vaccine response”. The “Vaccine specific antibodies in stool” value in experiment [1] (stool collected at 10 and 12 months, treatment group) is on record as “significant elevation”. The “Growth in HMOs (growth curves)” value in experiment [2] was “selective growth advantage”. Besides, in the experiment on peanut allergy, the “Inflammatory responses to the food antigen” value was “reduces”. In experiment [3], the “Rates of childhood-onset autoimmune and allergic disease” value is “decreases”; the TReg cell numbers result is listed as “increases”. For the same substance, in experiment [4], the “Incidence of symptoms of acute malnutrition” value was “lower”, the TReg cells result is listed as “expansion” and the Weight gain result is listed as “better”. In addition, in experiment [4] (children with SAM / hospitalized infants), the “B cell and plasma cell profiles, vaccine responses” value is reported as “improved”. For the same substance, in experiment [5], the Inflammation result is given as “reduced”; the “Th17 and IL-17 level” value is given as “decreased”; the Tregs result was “increased”.

These data come from patent US20210308196A1, “COMPOSITIONS AND METHODS TO PROMOTE HOST DEFENSE AND STIMULATE, EXPAND, AND/OR RESET T CELL REPERTOIRES” (EVOLVE BIOSYSTEMS, INC., priority 2018, published 2021).
